According to PubChem BioAssay AID1918953 (Molecular Pharmacology Branch, DTP, NCI, 2023):

Test system: MDA-MB-231 complex spheroid viability
Assay: Anticancer human tumor MDA-MB-231/ATCC cell line growth inhibition;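 further: drug exposure lasted 7 days starting on day 3 of spheroid growth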
Conditions: for IC50: curve of first compound; for viability, T/C: stronger effect = lower value
Method in brief: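 Multicellular complex spheroids of tumor cells with human endothelial cells (HUVEC) and mesenchymal stem cells; the LSD1 inhibitor iadademstat was combined with standard-of-care or investigational agents. Top concentration at or near clinical Cmax, half-log dilutions; final DMSO ≤0.25%.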

[1] = second compound 0.1 µM, first compound 0.00316 µM
[2] = second compound 0.1 µM, first compound 0.01 µM
[3] = second compound 0.1 µM, first compound 0.0316 µM
[4] = second compound 0.1 µM, first compound 0.1 µM
[5] = second compound 0.316 µM, first compound 0.00316 µM
[6] = second compound 0.316 µM, first compound 0.01 µM
[7] = second compound 0.316 µM, first compound 0.0316 µM
[8] = second compound 0.316 µM, first compound 0.1 µM
[9] = second compound 1 µM, first compound 0.00316 µM
[10] = second compound 1 µM, first compound 0.01 µM
[11] = second compound 1 µM, first compound 0.0316 µM
[12] = second compound 1 µM, first compound 0.1 µM
[13] = second compound 3.16 µM, first compound 0.00316 µM
[14] = second compound 3.16 µM, first compound 0.01 µM
[15] = second compound 3.16 µM, first compound 0.0316 µM
[16] = second compound 3.16 µM, first compound 0.1 µM
[17] = second compound 10 µM, first compound 0.00316 µM
[18] = second compound 10 µM, first compound 0.01 µM
[19] = second compound 10 µM, first compound 0.0316 µM
[20] = second compound 10 µM, first compound 0.1 µM

COc1cc(Nc2ncc3c(n2)-c2ccc(Cl)cc2C(c2c(F)cccc2OC)=NC3)ccc1C(=O)O + NC1CCC(NC2CC2c2ccccc2)CC1
IC50 (second compound 0.1 µM): 0.252 µM | IC50 (second compound 0.316 µM): 0.179 µM | IC50 (second compound 1 µM): 0.296 µM | IC50 (second compound 3.16 µM): 0.0901 µM | IC50 (second compound 10 µM): < 0.00316 µM | viability, T/C [1]: 85% | viability, T/C [2]: 66.4% | viability, T/C [3]: 56% | viability, T/C [4]: 58.7% | viability, T/C (second compound 0.1 µM, first compound 0.316 µM): 50% | viability, T/C (second compound 0.1 µM, first compound 1 µM): 44.3% | viability, T/C [5]: 83.1% | viability, T/C [6]: 65.5% | viability, T/C [7]: 56.2% | viability, T/C [8]: 54.9% | viability, T/C (second compound 0.316 µM, first compound 0.316 µM): 50.8% | viability, T/C (second compound 0.316 µM, first compound 1 µM): 42.7% | viability, T/C [9]: 80.4% | viability, T/C [10]: 64.6% | viability, T/C [11]: 55.6% | viability, T/C [12]: 56.2% | viability, T/C (second compound 1 µM, first compound 0.316 µM): 51.5% | viability, T/C (second compound 1 µM, first compound 1 µM): 45.6% | viability, T/C [13]: 68.4% | viability, T/C [14]: 54% | viability, T/C [15]: 51.2% | viability, T/C [16]: 54.5% | viability, T/C (second compound 3.16 µM, first compound 0.316 µM): 48.5% | viability, T/C (second compound 3.16 µM, first compound 1 µM): 38.2% | viability, T/C [17]: 49.4% | viability, T/C [18]: 42.4% | viability, T/C [19]: 40.7% | viability, T/C [20]: 38.6% | viability, T/C (second compound 10 µM, first compound 0.316 µM): 41.8% | viability, T/C (second compound 10 µM, first compound 1 µM): 37.2%

Cn1ncnc1C1c2n[nH]c(=O)c3cc(F)cc(c23)NC1c1ccc(F)cc1 (stereo not given) + NC1CCC(NC2CC2c2ccccc2)CC1
IC50 (second compound 0.1 µM): > 0.1 µM | IC50 (second compound 0.316 µM): > 0.1 µM | IC50 (second compound 1 µM): > 0.1 µM | IC50 (second compound 3.16 µM): > 0.1 µM | IC50 (second compound 10 µM): < 0.000316 µM | viability, T/C (second compound 0.1 µM, first compound 0.000316 µM): 95.7% | viability, T/C (second compound 0.1 µM, first compound 0.001 µM): 97.2% | viability, T/C [1]: 92.5% | viability, T/C [2]: 81.9% | viability, T/C [3]: 80.4% | viability, T/C [4]: 78.7% | viability, T/C (second compound 0.316 µM, first compound 0.000316 µM): 95.4% | viability, T/C (second compound 0.316 µM, first compound 0.001 µM): 95.6% | viability, T/C [5]: 84.6% | viability, T/C [6]: 80.7% | viability, T/C [7]: 77.7% | viability, T/C [8]: 75.2% | viability, T/C (second compound 1 µM, first compound 0.000316 µM): 92.3% | viability, T/C (second compound 1 µM, first compound 0.001 µM): 89.9% | viability, T/C [9]: 87.8% | viability, T/C [10]: 81.3% | viability, T/C [11]: 72.2% | viability, T/C [12]: 70.7% | viability, T/C (second compound 3.16 µM, first compound 0.000316 µM): 70.8% | viability, T/C (second compound 3.16 µM, first compound 0.001 µM): 68.9% | viability, T/C [13]: 64.5% | viability, T/C [14]: 60.4% | viability, T/C [15]: 59.1% | viability, T/C [16]: 60.9% | viability, T/C (second compound 10 µM, first compound 0.000316 µM): 48.3% | viability, T/C (second compound 10 µM, first compound 0.001 µM): 50.3% | viability, T/C [17]: 48.9% | viability, T/C [18]: 42.2% | viability, T/C [19]: 45.9% | viability, T/C [20]: 44.6%

NS(=O)(=O)OCC1CC(n2ccc3c(NC4CCc5ccccc54)ncnc32)CC1O (stereo not given) + NC1CCC(NC2CC2c2ccccc2)CC1
IC50 (second compound 0.1 µM): 0.285 µM | IC50 (second compound 0.316 µM): 0.28 µM | IC50 (second compound 1 µM): 0.244 µM | IC50 (second compound 3.16 µM): 0.169 µM | IC50 (second compound 10 µM): 0.0486 µM | viability, T/C (second compound 0.1 µM, first compound 0.00949 µM): 136% | viability, T/C (second compound 0.1 µM, first compound 0.03 µM): 117% | viability, T/C (second compound 0.1 µM, first compound 0.0949 µM): 78.1% | viability, T/C (second compound 0.1 µM, first compound 0.3 µM): 46.6% | viability, T/C (second compound 0.1 µM, first compound 0.949 µM): 42.7% | viability, T/C (second compound 0.1 µM, first compound 3 µM): 39.7% | viability, T/C (second compound 0.316 µM, first compound 0.00949 µM): 135% | viability, T/C (second compound 0.316 µM, first compound 0.03 µM): 116% | viability, T/C (second compound 0.316 µM, first compound 0.0949 µM): 77% | viability, T/C (second compound 0.316 µM, first compound 0.3 µM): 47.6% | viability, T/C (second compound 0.316 µM, first compound 0.949 µM): 40.3% | viability, T/C (second compound 0.316 µM, first compound 3 µM): 38.7% | viability, T/C (second compound 1 µM, first compound 0.00949 µM): 124% | viability, T/C (second compound 1 µM, first compound 0.03 µM): 107% | viability, T/C (second compound 1 µM, first compound 0.0949 µM): 73.4% | viability, T/C (second compound 1 µM, first compound 0.3 µM): 42.2% | viability, T/C (second compound 1 µM, first compound 0.949 µM): 40.6% | viability, T/C (second compound 1 µM, first compound 3 µM): 36.8% | viability, T/C (second compound 3.16 µM, first compound 0.00949 µM): 100% | viability, T/C (second compound 3.16 µM, first compound 0.03 µM): 87.2% | viability, T/C (second compound 3.16 µM, first compound 0.0949 µM): 59.7% | viability, T/C (second compound 3.16 µM, first compound 0.3 µM): 40.2% | viability, T/C (second compound 3.16 µM, first compound 0.949 µM): 33.4% | viability, T/C (second compound 3.16 µM, first compound 3 µM): 31.3% | viability, T/C (second compound 10 µM, first compound 0.00949 µM): 69.7% | viability, T/C (second compound 10 µM, first compound 0.03 µM): 56.8% | viability, T/C (second compound 10 µM, first compound 0.0949 µM): 40.4% | viability, T/C (second compound 10 µM, first compound 0.3 µM): 32.7% | viability, T/C (second compound 10 µM, first compound 0.949 µM): 28.1% | viability, T/C (second compound 10 µM, first compound 3 µM): 28.8%
